System: NOS1 = nNOS
Assay: Affymetrix Gen Array, NOS1 expression in 293 cells
Format: cell-based, human
Conditions: for NOS1 expression, ATA: ATA alone
Procedure: Confluent 293 cells (2.4×10^6 cells in a 75 cm^2 flask) were cultured in DMEM+10% FCS for approximately 20 hrs and were then infected with one plaque forming unit per cell (PFU/cell) of HSV-1 MacIntyre Strain for 90 min. ATA at a concentration 20 μM (final) was added 90 min post-infection. The infected cells were harvested at 24 h after infection. Total RNA of sufficient quality and quantity was isolated from suspension using RNeasy Plus Mini Kit (QIAGEN, Valencia, Calif.) according to the manufacturer's instructions. Whole genome expression profiling was performed on Affymetrix Human U133 Plus 2.0 Array by the Asuragen, Inc. 3 μg total RNA was provided as input material.
Overall, RNA quality assessed on the bioanalyzer had RIN values of >9. Array hybridization and scaling factors were within passing quality control range. After scanning, raw expression CEL files were processed with Affymetrix Expression Console vs.1.1.2 (affymetrix.com). Each CEL file was processed with Robust Multichip Analysis (RMA) and a summarized table was exported as a text file. All downstream genomics and statistical analyses were done with JMP Genomics (version 5) (jmp.com/software/genomics). First, a filtering step was applied to filter-out low expression, specifically, those values below 6 in log^2 mode in at least 2 out of 8 samples. Out of 54,675 total Affy U133 Plus2 probes, 41,569 (76%) probes remained after the cutoff. Two positive control samples were also seen, human brain and pooled human universal reference RNA, respectively, that hybridized well. For future analysis, these two samples were excluded.
The first principle component separation (91.7%) is therefore explained by the effect of HSV versus Vehicle. Data was median-normalized across each probe to have a median signal of 0. ANOVA was performed to find significant differential transcripts between HSV versus Vehicle, ATA versus Vehicle, […] versus Vehicle, and HSV+ATA versus HSV alone. Multiple testing corrections were not included, and significant genes were considered less that p-value of 0.01.
To identify cell response gene signatures to wtHSV-1 McIntyre infection, transcriptional profiling was done using Affymetrix Human U133 Plus 2.0 Array with 293 cells that were either mock-treated, ATA-treated (ATA), wtHSV-1 McIntyre-infected (HSV) or ATA-treated and wtHSV-1 McIntyre-infected (HSV&ATA) for 24 h. Gene expression changes induced by infection or ATA treatment were identified by referencing the gene expression level for each probe to that corresponding in the uninfected cells sample. HSV-1 infection alone had strong impact on the gene expression profile of 293 cells when compared to untreated cells gene profile.

O=C(O)C1=CC(=C(c2ccc(O)c(C(=O)O)c2)c2ccc(O)c(C(=O)O)c2)C=CC1=O [ATA, 5-((3-carboxy-4-hydroxyphenyl)(3-carboxy-4-oxo-2,5-cyclohexadien-1-ylidene)methyl)-2-hydroxybenzoic acid]
NOS1 expression, ATA (probe 207310_s_at): 1
NOS1 expression, HSV + ATA (probe 207310_s_at, HSV alone 2.79): 1.67
NOS1 expression, ATA (probe 240911_at): 1.02
NOS1 expression, HSV + ATA (probe 240911_at, HSV alone 1.71): 1.5

— patent US11299715B2, “Use of iNOS inhibitors to increase viral yield in culture” (priority 2013, dated 2022)
